Literature values, collected in patent publication US20100099776A1, “OILY SUSPENSION OF ATOVAQUONE” (RANBAXY LABORATORIES LIMITED, priority 2008, published 2010).

Details: single oral dose

Structure (SMILES): O=C1C(O)=C([C@H]2CC[C@H](c3ccc(Cl)cc3)CC2)C(=O)c2ccccc21 [Atovaquone, 244-(4-chlorophenyl)cyclohexyl′-3-hydroxy-1,4-naphthoquinone]
- dose above which absorption is dose-limited: above 750 mg
- increase of absorption by the presence of fatty food (with fatty food): about three-fold
